Key:
[1] = AUC (0 to infinity) in male Sprague-Dawley rat at 10 mg/kg, po; type: ADME, organism-based; set-up: dose 10 mg/kg, route oral, time infinity; settings: in vivo
[2] = molecular target: Voltage-gated inwardly rectifying potassium channel KCNH2 (Homo sapiens, UniProt Q12809); assay: Inhibition of human ERG channel
[3] = Plasma clearance in male Sprague-Dawley rat at 5 mg/kg, iv; type: ADME, organism-based
[4] = test system: Mus musculus; assay: Anti-diabetic effect in ICR mouse assessed as plasma glucose lowering effect at 10 mg/kg, po treated 1 hr before 2.5 g/kg, po glucose load by Oral glucose tolerance test relative to control
[5] = Cmax in male Sprague-Dawley rat at 5 mg/kg, iv; type: ADME, organism-based; set-up: dose 5 mg/kg, route intravenous; settings: in vivo
[6] = Volume of distribution at steady state in male Sprague-Dawley rat at 5 mg/kg, iv; type: ADME, organism-based; settings: in vivo, read-out: Vdss
[7] = Elimination half life in male Sprague-Dawley rat at 5 mg/kg, iv; type: ADME, organism-based; settings: in vivo, read-out: beta t1/2 (converted)
[8] = Cmax in male Sprague-Dawley rat at 10 mg/kg, po; type: ADME, organism-based; set-up: dose 10 mg/kg, route oral; settings: in vivo
[9] = Oral bioavailability in male Sprague-Dawley rat at 10 mg/kg; type: ADME, organism-based; settings: in vivo
[10] = test system: Rattus norvegicus; assay: Volume of distribution at steady state in male Sprague-Dawley rat at 10 mg/kg, po; type: ADME, organism-based; settings: in vivo
[11] = test system: Mus musculus; assay: Anti-diabetic effect in ICR mouse assessed as plasma glucose lowering effect at 10 mg/kg, po treated 8 hrs before 2.5 g/kg, po glucose load measured after 8 hrs by Oral glucose tolerance test relative to control
[12] = Tmax in male Sprague-Dawley rat at 10 mg/kg, po; type: ADME, organism-based; settings: in vivo
[13] = Plasma clearance in male Sprague-Dawley rat at 10 mg/kg, po; type: ADME, organism-based
[14] = molecular target: Dipeptidyl peptidase 9 (Homo sapiens, UniProt Q86TI2); assay: Inhibition of human recombinant DPP9 using H-Gly-Pro-AMC substrate after 10 mins by fluorescence assay
Sequence of Dipeptidyl peptidase 9 (Q86TI2 whole entry): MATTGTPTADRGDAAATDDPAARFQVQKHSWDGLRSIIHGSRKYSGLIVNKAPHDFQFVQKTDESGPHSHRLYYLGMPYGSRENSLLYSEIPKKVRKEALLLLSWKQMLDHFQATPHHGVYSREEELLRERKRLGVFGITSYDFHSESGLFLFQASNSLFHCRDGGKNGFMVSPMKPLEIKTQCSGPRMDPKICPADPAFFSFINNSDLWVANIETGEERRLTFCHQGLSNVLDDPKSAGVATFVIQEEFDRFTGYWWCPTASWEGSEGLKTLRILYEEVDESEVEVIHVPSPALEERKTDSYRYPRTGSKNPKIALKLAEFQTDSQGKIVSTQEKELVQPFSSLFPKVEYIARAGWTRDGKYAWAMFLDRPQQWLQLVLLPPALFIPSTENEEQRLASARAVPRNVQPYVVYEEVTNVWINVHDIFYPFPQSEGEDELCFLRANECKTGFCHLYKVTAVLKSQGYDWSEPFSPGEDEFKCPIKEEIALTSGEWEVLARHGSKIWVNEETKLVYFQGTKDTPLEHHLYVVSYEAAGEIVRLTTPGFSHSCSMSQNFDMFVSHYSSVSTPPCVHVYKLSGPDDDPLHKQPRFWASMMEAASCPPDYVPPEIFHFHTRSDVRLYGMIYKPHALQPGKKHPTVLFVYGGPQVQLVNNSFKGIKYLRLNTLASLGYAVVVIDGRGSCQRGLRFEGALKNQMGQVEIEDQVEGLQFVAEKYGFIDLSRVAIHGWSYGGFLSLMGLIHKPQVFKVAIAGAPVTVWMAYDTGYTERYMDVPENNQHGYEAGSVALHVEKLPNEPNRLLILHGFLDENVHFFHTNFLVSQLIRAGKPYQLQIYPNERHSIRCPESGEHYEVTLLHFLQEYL

[15] = molecular target: Dipeptidyl peptidase 8 (Homo sapiens, UniProt Q6V1X1); assay: Inhibition of human recombinant DPP8 using H-Gly-Pro-AMC substrate after 10 mins by fluorescence assay
Sequence of Dipeptidyl peptidase 8 (Q6V1X1 whole entry): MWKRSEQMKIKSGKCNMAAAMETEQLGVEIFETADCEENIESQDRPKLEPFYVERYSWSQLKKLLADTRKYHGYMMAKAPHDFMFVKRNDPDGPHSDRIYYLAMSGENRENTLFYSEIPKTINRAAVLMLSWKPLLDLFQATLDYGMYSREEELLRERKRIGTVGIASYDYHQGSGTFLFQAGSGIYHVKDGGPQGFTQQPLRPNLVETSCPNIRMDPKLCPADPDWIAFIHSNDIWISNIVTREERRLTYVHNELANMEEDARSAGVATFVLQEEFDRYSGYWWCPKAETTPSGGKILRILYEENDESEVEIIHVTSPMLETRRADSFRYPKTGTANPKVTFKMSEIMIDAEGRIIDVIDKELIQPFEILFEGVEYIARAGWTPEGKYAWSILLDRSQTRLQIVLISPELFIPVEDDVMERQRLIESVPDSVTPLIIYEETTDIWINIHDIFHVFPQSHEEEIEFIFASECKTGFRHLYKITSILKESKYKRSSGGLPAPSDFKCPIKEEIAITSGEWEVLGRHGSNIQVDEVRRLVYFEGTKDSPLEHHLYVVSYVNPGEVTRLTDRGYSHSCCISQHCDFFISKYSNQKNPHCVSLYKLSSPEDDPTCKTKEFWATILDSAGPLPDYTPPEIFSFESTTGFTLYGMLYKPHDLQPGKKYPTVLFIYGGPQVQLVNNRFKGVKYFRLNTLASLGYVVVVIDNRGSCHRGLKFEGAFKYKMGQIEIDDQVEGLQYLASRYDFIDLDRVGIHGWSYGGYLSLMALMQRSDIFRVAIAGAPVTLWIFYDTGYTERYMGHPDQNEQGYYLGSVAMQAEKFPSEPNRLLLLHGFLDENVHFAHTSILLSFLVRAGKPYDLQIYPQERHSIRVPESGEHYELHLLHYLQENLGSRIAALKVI

[16] = AUC (0 to infinity) in male Sprague-Dawley rat at 5 mg/kg, iv; type: ADME, organism-based; set-up: dose 5 mg/kg, time infinity, route intravenous; settings: in vivo
[17] = Elimination half life in male Sprague-Dawley rat at 10 mg/kg, po; type: ADME, organism-based; settings: in vivo, read-out: beta t1/2 (converted)
[18] = Elimination half life in rat liver microsomes; type: ADME; settings: read-out: beta t1/2
[19] = Metabolic stability in rat liver microsome assessed as turnover after 84 mins; type: ADME; settings: liver microsomes, read-out: Drug metabolism

Sequence of Voltage-gated inwardly rectifying potassium channel KCNH2 (Q12809 whole entry): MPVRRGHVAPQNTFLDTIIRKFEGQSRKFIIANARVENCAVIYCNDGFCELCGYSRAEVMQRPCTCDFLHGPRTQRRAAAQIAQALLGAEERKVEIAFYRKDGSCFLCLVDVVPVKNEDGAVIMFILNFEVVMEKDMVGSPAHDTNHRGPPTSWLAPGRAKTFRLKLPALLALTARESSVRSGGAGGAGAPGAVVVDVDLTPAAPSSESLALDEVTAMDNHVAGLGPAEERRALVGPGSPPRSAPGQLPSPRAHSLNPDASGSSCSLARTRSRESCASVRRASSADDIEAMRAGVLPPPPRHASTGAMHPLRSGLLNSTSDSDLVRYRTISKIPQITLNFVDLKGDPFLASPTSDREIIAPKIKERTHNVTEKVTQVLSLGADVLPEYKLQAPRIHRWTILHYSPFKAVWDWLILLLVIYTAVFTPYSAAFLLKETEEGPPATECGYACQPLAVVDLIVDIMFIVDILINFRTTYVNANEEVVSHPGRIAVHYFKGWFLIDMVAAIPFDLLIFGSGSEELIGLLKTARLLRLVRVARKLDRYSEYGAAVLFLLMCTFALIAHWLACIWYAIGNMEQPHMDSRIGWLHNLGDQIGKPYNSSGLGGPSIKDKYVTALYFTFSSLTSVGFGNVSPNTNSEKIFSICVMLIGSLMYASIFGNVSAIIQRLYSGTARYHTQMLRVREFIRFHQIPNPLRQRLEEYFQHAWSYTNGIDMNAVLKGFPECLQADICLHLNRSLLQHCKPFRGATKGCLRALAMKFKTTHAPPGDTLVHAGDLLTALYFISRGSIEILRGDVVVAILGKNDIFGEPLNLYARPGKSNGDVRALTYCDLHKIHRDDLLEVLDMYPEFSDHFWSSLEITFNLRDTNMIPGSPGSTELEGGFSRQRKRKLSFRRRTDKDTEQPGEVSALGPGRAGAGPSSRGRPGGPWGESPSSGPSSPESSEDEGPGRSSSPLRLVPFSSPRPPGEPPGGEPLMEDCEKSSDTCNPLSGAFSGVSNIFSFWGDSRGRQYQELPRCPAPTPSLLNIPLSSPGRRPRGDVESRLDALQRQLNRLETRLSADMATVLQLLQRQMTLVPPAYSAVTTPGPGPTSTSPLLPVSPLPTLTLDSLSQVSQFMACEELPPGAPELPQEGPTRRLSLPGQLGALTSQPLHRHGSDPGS

| IC50 [14] [µM] | IC50 [15] [µM] | half-life [18] [h] | Structure (SMILES) | inhibition (INH) [4] [%] | inhibition (INH) [11] [%] | other results |
| --- | --- | --- | --- | --- | --- | --- |
| > 10 | > 10 | 5.88 | N[C@@H](CC(=O)N1CCn2c(nnc2C(F)(F)F)C1)[C@H]1CCc2cc(F)c(F)cc21 | 57 | 24 | AUC(0-inf) [1]: 2850 ng·h/mL; IC50 [2]: > 20 µM; clearance [3]: 37 mL/min/kg; Cmax [5]: 1490 ng/mL; Vd [6]: 14.2 L/kg; half-life [7]: 4.39 h; Cmax [8]: 466 ng/mL; bioavailability [9]: 61%; Vdss [10]: 25.792 L/kg; Tmax [12]: 0.55 h; CL/F [13]: 59.1 mL/min/kg; AUC(0-inf) [16]: 2270 ng·h/mL; half-life [17]: 5.11 h |
| > 10 | > 10 | 1.4 | N[C@@H](CC(=O)N1CC(=O)Nc2ccccc2C1)[C@H]1CCc2cc(F)c(F)cc21 | 34 | 35 | IC50 [2]: > 20 µM; metabolised at 1.4 h [19]: 50% |
|  |  | 1.85 | N[C@@H](CC(=O)N1CC(=O)Nc2cc(F)ccc2C1)[C@H]1CCc2cc(F)c(F)cc21 |  |  |  |
| > 10 | > 10 |  | N[C@@H](CC(=O)N1CC(=O)Nc2cc(F)c(F)cc2C1)[C@H]1CCc2cc(F)c(F)cc21 |  |  |  |
| > 10 | > 10 |  | CN1C(=O)CN(C(=O)C[C@H](N)[C@H]2CCc3cc(F)c(F)cc32)Cc2ccccc21 | 29 | 38 |  |
| > 10 | > 10 |  | CN1C(=O)CN(C(=O)C[C@H](N)[C@H]2CCc3cc(F)c(F)cc32)Cc2ccc(F)cc21 | 48 | 30 |  |
|  |  |  | N[C@@H](CC(=O)N1CCn2c(nnc2C(F)(F)F)C1)Cc1cc(F)c(F)cc1F [SITAGLIPTIN] | 40 | 24 |  |

From ChEMBL document CHEMBL3580611, “Design, Synthesis, and Pharmacological Evaluation of Fused β-Homophenylalanine Derivatives as Potent DPP-4 Inhibitors” (ACS Med Chem Lett, 2015)
